A short description of the data set: Particle size and morphology by transmission electron microscopy (TEM). Type of data set: physicochemical. As for the experimental part: Precipitation of beclomethasone was carried out by modifying a method published earlier, where the drug was crystallised either in pure water or in the presence of a surfactant, Tween-80 (Wang et al. 2007^xi, Matteucci et al., 2006^xii). 34.8 mM beclomethasone dipropionate (BDB, MW 521.1) solution was prepared by dissolving the BDP in methanol. 0.5 ml of BDP solution was poured into 20 ml of pure deionized water with 0-0.15 wt-% (0-208.3 μM) HFBII. The resulting aqueous solution had 0.05 wt-% BDP. Both solutions were filtered with 0.2 μm syringe filter to remove possible impurities prior to use. The receiving liquid was stirred vigorously with a magnetic stirrer and temperature of the solution was controlled by keeping the sample in an ice bath or in room temperature during the precipitation. The precipitate was observed as a turbid solution immediately after BDP addition.
Transmission electron microscopy (TEM): 20 min after precipitation 20 μl of the nanoparticle dispersions were dried on formvar film-coated copper grids with mesh size 300.
The synthesis was done as in the earlier section, except that the drug used was itraconazole. Mass ratios of 2:1, 1:1 and 1:2 of HFBII:itraconazole were tested. TEM was used to study the size and morphology of the particles. […] Monodispersity increased with increasing HFBII amount. […]

The structures appear in SMILES notation.

On to `CCC(=O)OCC(=O)[C@@]1(OC(=O)CC)[C@@H](C)C[C@H]2[C@@H]3CCC4=CC(=O)C=C[C@]4(C)[C@@]3(Cl)[C@@H](O)C[C@@]21C` [BDP, beclomethasone dipropionate], for which the “crystals formed (size and habit)” value (precipitated from methanol into water without HFBII) is on record as “a few micrometer long needles”. For the same compound, under “precipitated with HFBII at room temperature, TEM”, the particle size entry was “several micrometers”.

The record behind these values is US20120135081A1, “HYDROPHOBINS FOR DISPERSING ACTIVE AGENTS” (TEKNOLOGIAN TUTKIMUSKESKUS VTT, priority 2009, published 2012).
